For 24 compounds, IC50 results are on record in patent publication US8101774B2, “Ester derivatives and medicinal use thereof” (Japan Tobacco Inc., priority 2004, dated 2012).

The test concerns the target T1, Microsomal triglyceride transfer protein (MTP) from human small intestine microsome (Homo sapiens, UniProt P55157).
T1 construct: Human small intestine microsome was dialyzed against 10 mM phosphate buffer; tissue Tissue Transforming Technologies, Inc; host or cells: human small intestine microsome
Nature of the test: Inhibition test of interliposomal triglyceride (TG) transfer activity by MTP. The class given is biochemical. The conditions noted are these: purified MTP from human small intestine microsome, 37° C., 1.5 hours. An outline of the steps: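 DEAE-purified human small intestine MTP (50 μL of 20 μg/mL) incubated 1.5 hours at 37° C with ^14C-triolein donor and unlabelled acceptor SUV liposomes in pH 7.4 Tris buffer with 0.5% BSA. Donor removed on DEAE cellulose; acceptor radioactivity counted, blank-corrected against DMSO control, giving percent inhibition and IC50.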

Molecules are shown by their SMILES. Where a name gives a salt, the structure may show the parent alone.

T1 sequence (P55157 19-894): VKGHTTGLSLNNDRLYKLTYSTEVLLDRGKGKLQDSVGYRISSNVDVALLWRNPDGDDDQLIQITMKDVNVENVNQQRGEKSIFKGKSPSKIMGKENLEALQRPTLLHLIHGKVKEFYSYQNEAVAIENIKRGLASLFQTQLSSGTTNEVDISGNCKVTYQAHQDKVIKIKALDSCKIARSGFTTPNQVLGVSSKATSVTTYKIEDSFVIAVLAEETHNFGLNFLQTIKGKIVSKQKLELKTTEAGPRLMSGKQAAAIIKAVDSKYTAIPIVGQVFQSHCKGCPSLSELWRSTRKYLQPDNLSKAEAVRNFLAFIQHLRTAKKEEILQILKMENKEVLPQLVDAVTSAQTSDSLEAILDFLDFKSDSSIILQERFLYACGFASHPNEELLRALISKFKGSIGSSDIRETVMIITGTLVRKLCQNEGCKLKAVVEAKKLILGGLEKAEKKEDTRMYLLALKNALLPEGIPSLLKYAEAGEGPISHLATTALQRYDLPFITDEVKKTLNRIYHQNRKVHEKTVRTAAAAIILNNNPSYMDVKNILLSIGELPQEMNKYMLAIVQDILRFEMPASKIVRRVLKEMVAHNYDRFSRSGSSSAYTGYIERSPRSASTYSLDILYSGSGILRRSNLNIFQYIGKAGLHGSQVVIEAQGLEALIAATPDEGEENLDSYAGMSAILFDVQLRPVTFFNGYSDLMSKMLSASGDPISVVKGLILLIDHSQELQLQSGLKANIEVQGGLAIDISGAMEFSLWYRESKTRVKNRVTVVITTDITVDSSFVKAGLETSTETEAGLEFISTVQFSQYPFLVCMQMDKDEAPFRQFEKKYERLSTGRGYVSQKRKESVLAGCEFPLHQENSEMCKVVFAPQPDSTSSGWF
T1 sequence (P07237 18-508 partner): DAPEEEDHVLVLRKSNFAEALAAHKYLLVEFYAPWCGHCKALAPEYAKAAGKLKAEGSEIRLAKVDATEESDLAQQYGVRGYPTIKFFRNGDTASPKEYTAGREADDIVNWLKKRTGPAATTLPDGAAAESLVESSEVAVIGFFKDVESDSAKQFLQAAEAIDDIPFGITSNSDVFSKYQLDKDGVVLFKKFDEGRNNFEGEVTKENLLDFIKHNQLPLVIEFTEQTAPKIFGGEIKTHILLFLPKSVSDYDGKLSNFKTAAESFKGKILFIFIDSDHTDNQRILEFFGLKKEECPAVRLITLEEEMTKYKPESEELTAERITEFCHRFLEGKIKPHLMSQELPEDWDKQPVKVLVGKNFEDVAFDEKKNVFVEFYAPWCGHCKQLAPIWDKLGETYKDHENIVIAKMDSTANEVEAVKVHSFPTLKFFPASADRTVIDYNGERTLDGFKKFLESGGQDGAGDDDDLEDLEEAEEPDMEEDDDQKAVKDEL

The compound `COC(=O)c1cc(Br)c(OC(=O)CCCc2ccc(NC(=O)c3ccc(C)nc3-c3ccc(C(F)(F)F)cc3)c(C(=O)N(C)C)c2)c(OC)c1` [Compound 1-50, 3-bromo-4-[4-(3-dimethylcarbamoyl-4-{[6-methyl-2-(4-trifluoromethylphenyl)pyridine-3-carbonyl]amino}phenyl)butyryloxy]-5-methoxybenzoic acid methyl ester] returned an IC50 below 10 nM.
Then `CCc1cc(C(=O)OC)cc(C(=O)OC)c1OC(=O)CCCc1ccc(NC(=O)c2ccc(C)nc2-c2ccc(C(F)(F)F)cc2)c(C(=O)N(C)C)c1` [Compound 1-51, 4-[4-(3-dimethylcarbamoyl-4-{[6-methyl-2-(4-trifluoromethylphenyl)pyridine-3-carbonyl]amino}phenyl)butyryloxy]-5-ethylisophthalic acid dimethyl ester], with below 10 nM; and `CCOC(=O)c1cc(C)c(OC(=O)CCCc2ccc(NC(=O)c3ccc(C)nc3-c3ccc(C(F)(F)F)cc3)c(C(=O)N(C)C)c2)c(C(=O)OC)c1` [Compound 1-52, 4-[4-(3-dimethylcarbamoyl-4-{[6-methyl-2-(4-trifluoromethylphenyl)pyridine-3-carbonyl]amino}phenyl)butyryloxy]-5-methylisophthalic acid 1-ethyl ester 3-methyl ester], with below 10 nM; and `COC(=O)c1cc(OC)c(OC(=O)CCCc2ccc(NC(=O)c3ccc(C)nc3-c3ccc(C(F)(F)F)cc3)c(C(=O)N(C)C)c2)c(C(=O)OC)c1` [Compound 1-53, 4-[4-(3-dimethylcarbamoyl-4-{[6-methyl-2-(4-trifluoromethylphenyl)pyridine-3-carbonyl]amino}phenyl)butyryloxy]-5-methoxyisophthalic acid dimethyl ester], with below 10 nM.
`CCOC(=O)c1cc(OC)c(OC(=O)CCCc2ccc(NC(=O)c3ccc(C)nc3-c3ccc(C(F)(F)F)cc3)c(C(=O)N(C)C)c2)c(C(=O)OC)c1` [Compound 1-54, 4-[4-(3-dimethylcarbamoyl-4-{[6-methyl-2-(4-trifluoromethylphenyl)pyridine-3-carbonyl]amino}phenyl)butyryloxy]-5-methoxyisophthalic acid 1-ethyl ester 3-methyl ester] showed an IC50 below 10 nM.
As for `Cc1ccc(C(=O)Nc2ccc(CCCC(=O)Oc3ccc(C(=O)OC(C)C)cc3)cc2C(=O)N(C)C)c(-c2ccc(C(F)(F)F)cc2)n1` [Compound 1-63, 4-[4-(3-dimethylcarbamoyl-4-{[6-methyl-2-(4-trifluoromethylphenyl)pyridine-3-carbonyl]amino}phenyl)butyryloxy]benzoic acid isopropyl ester sulfate], the IC50 was below 10 nM.
As for `COC(=O)c1cc(C)c(OC(=O)CCCc2ccc(NC(=O)c3ccccc3-c3ccc(C(F)(F)F)cc3)c(C(=O)N(C)C)c2)c(C)c1` [Compound 1-64, 4-[4-(3-dimethylcarbamoyl-4-{(4′-trifluoromethylbiphenyl-2-carbonyl)amino}phenyl)butyryloxy]-3,5-dimethylbenzoic acid methyl ester], the IC50 was below 10 nM.
As to `COC(=O)c1cc(C)c(OC(=O)CCCc2ccc(NC(=O)c3ccc(C)nc3-c3ccc(C(F)(F)F)cc3)c(C(=O)N(C)C)c2)c(C)c1` [Compound 1-65, 4-[4-(3-dimethylcarbamoyl-4-{[6-methyl-2-(4-trifluoromethylphenyl)pyridine-3-carbonyl]amino}phenyl)butyryloxy]-3,5-dimethylbenzoic acid methyl ester], the IC50 is below 10 nM.
Then `CCc1cc(C(=O)OC)ccc1OC(=O)CCCc1ccc(NC(=O)c2ccccc2-c2ccc(C(F)(F)F)cc2)c(C(=O)N(C)C)c1` [Compound 1-67, 4-[4-(3-dimethylcarbamoyl-4-{(4′-trifluoromethylbiphenyl-2-carbonyl)amino}phenyl)butyryloxy]-3-ethylbenzoic acid methyl ester], with below 10 nM; and `COC(=O)c1ccc(OC(=O)CCCc2ccc(NC(=O)c3ccccc3-c3ccc(C(F)(F)F)cc3)c(C(=O)N(C)C)c2)c(C(C)C)c1` [Compound 1-68, 4-[4-(3-dimethylcarbamoyl-4-{(4′-trifluoromethylbiphenyl-2-carbonyl)amino}phenyl)butyryloxy]-3-isopropylbenzoic acid methyl ester], with below 10 nM.
Then `COC(=O)c1ccc(OC(=O)CCCc2ccc(NC(=O)c3ccc(C)nc3-c3ccc(C(F)(F)F)cc3)c(C(=O)N(C)C)c2)c(C)c1` [Compound 1-69, 4-[4-(3-dimethylcarbamoyl-4-{[6-methyl-2-(4-trifluoromethylphenyl)pyridine-3-carbonyl]amino}phenyl)butyryloxy]-3-methylbenzoic acid methyl ester], with 10 to 100 nM; and `COC(=O)c1ccc(OC(=O)CCCc2ccc(NC(=O)c3ccc(C)nc3-c3ccc(C(F)(F)F)cc3)c(C(=O)N(C)C)c2)c(C(=O)OC)c1` [Compound 1-70, 4-[4-(3-dimethylcarbamoyl-4-{[6-methyl-2-(4-trifluoromethylphenyl)pyridine-3-carbonyl]amino}phenyl)butyryloxy]isophthalic acid dimethyl ester], with below 10 nM.
The figure for `CCOC(=O)c1ccc(OC(=O)CCCc2ccc(NC(=O)c3ccc(C)nc3-c3ccc(C(F)(F)F)cc3)c(C(=O)N(C)C)c2)cc1` [Compound 1-71, 4-[4-(3-dimethylcarbamoyl-4-{[6-methyl-2-(4-trifluoromethylphenyl)pyridine-3-carbonyl]amino}phenyl)butyryloxy]benzoic acid ethyl ester] is below 10 nM; for `COC(=O)c1cc(C(=O)OC(C)C)ccc1OC(=O)CCCc1ccc(NC(=O)c2ccc(C)nc2-c2ccc(C(F)(F)F)cc2)c(C(=O)N(C)C)c1` [Compound 1-72, 4-[4-(3-dimethylcarbamoyl-4-{[6-methyl-2-(4-trifluoromethylphenyl)pyridine-3-carbonyl]amino}phenyl)butyryloxy]isophthalic acid 1-isopropyl ester 3-methyl ester] it is below 10 nM.
Compound `CCc1cc(C(=O)OC)cc(Cl)c1OC(=O)CCCc1ccc(NC(=O)c2ccc(C)nc2-c2ccc(C(F)(F)F)cc2)c(C(=O)N(C)C)c1` [Compound 1-73, 3-chloro-4-[4-(3-dimethylcarbamoyl-4-{[6-methyl-2-(4-trifluoromethylphenyl)pyridine-3-carbonyl]amino}phenyl)butyryloxy]-5-ethylbenzoic acid methyl ester] came in with a half-inhibitory concentration (IC50) below 10 nM.
`COC(=O)c1cc(Cl)c(OC(=O)CCCc2ccc(NC(=O)c3ccc(C)nc3-c3ccc(C(F)(F)F)cc3)c(C(=O)N(C)C)c2)c(C(C)C)c1` [Compound 1-74, 3-chloro-4-[4-(3-dimethylcarbamoyl-4-{[6-methyl-2-(4-trifluoromethylphenyl)pyridine-3-carbonyl]amino}phenyl)butyryloxy]-5-isopropylbenzoic acid methyl ester] showed an IC50 below 10 nM.
Take `CCCOC(=O)c1cc(Cl)c(OC(=O)CCCc2ccc(NC(=O)c3ccc(C)nc3-c3ccc(C(F)(F)F)cc3)c(C(=O)N(C)C)c2)c(OC)c1` [Compound 1-75, 3-chloro-4-[4-(3-dimethylcarbamoyl-4-{[6-methyl-2-(4-trifluoromethylphenyl)pyridine-3-carbonyl]amino}phenyl)butyryloxy]-5-methoxybenzoic acid propyl ester]: the IC50 is below 10 nM.
The compound `CC(C)OCCOC(=O)c1ccc(OC(=O)CCCc2ccc(NC(=O)c3ccccc3-c3ccc(C(F)(F)F)cc3)c(C(=O)N(C)C)c2)cc1` [Compound 1-76, 4-[4-(3-dimethylcarbamoyl-4-{(4′-trifluoromethylbiphenyl-2-carbonyl)amino}phenyl)butyryloxy]benzoic acid 2-isopropoxyethyl ester] registered an IC50 below 10 nM.
`CC(=O)NCCOC(=O)c1ccc(OC(=O)CCCc2ccc(NC(=O)c3ccccc3-c3ccc(C(F)(F)F)cc3)c(C(=O)N(C)C)c2)cc1` [Compound 1-77, 4-[4-(3-dimethylcarbamoyl-4-{(4′-trifluoromethylbiphenyl-2-carbonyl)amino}phenyl)butyryloxy]benzoic acid 2-acetylaminoethyl ester] gave a half-maximal inhibitory concentration (IC50) below 10 nM.
`CN(C)C(=O)c1cc(CCCC(=O)Oc2ccc(C(=O)OCC(=O)OCc3ccccc3)cc2)ccc1NC(=O)c1ccccc1-c1ccc(C(F)(F)F)cc1` [Compound 1-78] came in with an IC50 below 10 nM.
The figure for `CN(C)C(=O)c1cc(CCCC(=O)Oc2ccc(C(=O)OCc3ccc(Cl)cc3)cc2)ccc1NC(=O)c1ccccc1-c1ccc(C(F)(F)F)cc1` [Compound 1-79, 4-[4-(3-dimethylcarbamoyl-4-{(4′-trifluoromethylbiphenyl-2-carbonyl)amino}phenyl)butyryloxy]benzoic acid 4-chlorobenzyl ester] is below 10 nM; for `Cc1ccc(C(=O)Nc2ccc(CCCC(=O)Oc3ccc(C(=O)OCc4ccccc4)cc3)cc2C(=O)N(C)C)c(-c2ccc(C(F)(F)F)cc2)n1` [Compound 1-80, 4-[4-(3-dimethylcarbamoyl-4-{[6-methyl-2-(4-trifluoromethylphenyl)pyridine-3-carbonyl]amino}phenyl)butyryloxy]benzoic acid benzyl ester] it is below 10 nM.
As for `CN(C)C(=O)c1cc(CCCC(=O)Oc2ccc(C(=O)OCc3ccccn3)cc2)ccc1NC(=O)c1ccccc1-c1ccc(C(F)(F)F)cc1` [Compound 1-82, 4-[4-(3-dimethylcarbamoyl-4-{(4′-trifluoromethylbiphenyl-2-carbonyl)amino}phenyl)butyryloxy]benzoic acid pyridin-2-ylmethyl ester], the IC50 was below 10 nM.
Then `CN(C)C(=O)c1cc(CCCC(=O)Oc2ccc(C(=O)OCc3cccnc3)cc2)ccc1NC(=O)c1ccccc1-c1ccc(C(F)(F)F)cc1` [Compound 1-83, 4-[4-(3-dimethylcarbamoyl-4-{(4′-trifluoromethylbiphenyl-2-carbonyl)amino}phenyl)butyryloxy]benzoic acid pyridin-3-ylmethyl ester], with below 10 nM.

By IC50 is commonly meant the concentration needed to halve the response being measured.
